Paper PMC6299892 (Journal of Genetic Engineering & Biotechnology, 2016)

Tested on: A. pullulans NAC8 yellow laccase
Assay: absorbance at […] nm, double reciprocal plot
Type: biochemical, Aureobasidium pullulans
Settings: guaiacol 0.1-3.0 mM; standard assay: acetate buffer pH 5.0, 25 °C

Km: 1050 ± 120 µM
SMILES: COc1ccccc1O [guaiacol, 2-methoxyphenol]
